Patent publication US8952024B2, “Herbicidal pyrimidone derivatives” (E I du Pont de Nemours and Company, priority 2009, dated 2015)

Key:
Type in all cases: in vivo
[1] = test system: large crabgrass (Digitaria sanguinalis); test: Test A pre-/postemergence plant response
Method in brief: (§1)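 Both pre- and postemergence treatments are applied simultaneously, using chemicals formulated in a non-phytotoxic solvent mixture with surfactant. Postemergence plants are 2–10 cm high with one to two leaves. After approximately ten days in a greenhouse, injury is scored visually from 0 (none) to 100 (complete control) relative to untreated plants.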

[2] = test system: barnyardgrass (Echinochloa crus-galli); test: Test A pre-/postemergence plant response
Method in brief: as §1

[3] = test system: pigweed (Amaranthus retroflexus); test: Test A pre-/postemergence plant response
Method in brief: as §1

[4] = test system: velvetleaf (Abutilon theophrasti); test: Test A pre-/postemergence plant response
Method in brief: as §1

[5] = test system: wheat (Triticum aestivum); test: Test A pre-/postemergence plant response
Method in brief: as §1

[6] = test system: giant foxtail (Setaria faberii); test: Test A pre-/postemergence plant response
Method in brief: as §1

[7] = test system: corn (Zea mays); test: Test A pre-/postemergence plant response
Method in brief: as §1

[8] = test system: morningglory (Ipomoea spp.); test: Test A pre-/postemergence plant response
Method in brief: as §1

[9] = test system: winter barley (Hordeum vulgare); test: Test B postemergence plant response
Description: At the same time, plants selected from these crop and weed species and also winter barley (Hordeum vulgare), canarygrass (Phalaris minor), chickweed (Stellaria media) and windgrass (Apera spica-venti) were planted in pots containing Redi-Earth® planting medium (Scotts Company, 14111 Scottslawn Road, Marysville, Ohio 43041) comprising spaghnum peat moss, vermiculite, wetting agent and starter nutrients and treated with postemergence applications of some of the test chemicals formulated in the same manner. Plants ranged in height from 2 to 18 cm (1- to 4-leaf stage) for postemergence treatments.
Treated plants and controls were maintained in a greenhouse for 13 to 15 days, after which time all treated plants were visually evaluated and compared to controls. Plant response ratings, summarized in Table B, are based on a scale of 0 to 100 where 0 is no effect and 100 is complete control. A dash (-) response means no test result.

[10] = test system: barnyardgrass (Echinochloa crus-galli); test: Test B flooded paddy test; settings: for Plant response rating, Barnyardgrass: Flood (flooded paddy test), 13 to 15 days
Method in brief: (§2)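 Rice, umbrella sedge, ducksalad and barnyardgrass were grown to the 2-leaf stage, flooded to 3 cm, and compound was applied directly to the paddy water, with that depth kept throughout. After 13 to 15 days in the greenhouse, plants were visually rated against controls on a 0 (no effect) to 100 (complete control) scale.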

[11] = test system: ducksalad (Heteranthera limosa); test: Test B flooded paddy test; settings: for Plant response rating, Ducksalad: Flood (flooded paddy test), 13 to 15 days
Method in brief: as §2

[12] = test system: umbrella sedge (Cyperus difformis); test: Test B flooded paddy test; settings: for Plant response rating, Sedge, Umbrella: Flood (flooded paddy test), 13 to 15 days
Method in brief: as §2

[13] = test system: rice (Oryza sativa); test: Test B flooded paddy test; settings: for Plant response rating, Rice: Flood (flooded paddy test), 13 to 15 days
Method in brief: as §2

[14] = Postemergence, 125 g ai/ha, 0 to 100 scale where 0 is no effect and 100 is complete control
[15] = Postemergence, 500 g ai/ha, 0 to 100 scale, 0 = no effect, 100 = complete control, approx. ten days
[16] = Preemergence, 125 g ai/ha, 0 to 100 scale, 0 = no effect, 100 = complete control
[17] = Preemergence, 500 g ai/ha, visual injury, 0 to 100 scale (0 no effect, 100 complete control), approx. ten days
[18] = 250 g ai/ha, flooded paddy test, visual rating on 0 to 100 scale (0 no effect, 100 complete control) after 13 to 15 days
[19] = 62 g ai/ha, scale of 0 to 100 where 0 is no effect and 100 is complete control
[20] = 125 g ai/ha, scale 0 to 100, 0 is no effect, 100 is complete control
[21] = Flood, 31 g ai/ha, scale 0 to 100 (0 no effect, 100 complete control)

Structure (SMILES): CCCn1c(-c2ccc(F)cc2)ncc(C(=O)C2=C(O)CCCC2=O)c1=O [Compound 102]
- Plant response rating, Crabgrass, Large [1, 14]: 90
- Plant response rating, Crabgrass, Large [1, 15]: 100
- Plant response rating, Crabgrass, Large [1, 16]: 80
- Plant response rating, Crabgrass, Large [1, 17]: 100
- Plant response rating, Barnyardgrass [2, 14]: 80
- Plant response rating, Barnyardgrass [2, 15]: 90
- Plant response rating, Barnyardgrass [2, 16]: 40
- Plant response rating, Barnyardgrass [2, 17]: 90
- Plant response rating, Pigweed [3, 14]: 100
- Plant response rating, Pigweed [3, 15]: 100
- Plant response rating, Pigweed [3, 16]: 60
- Plant response rating, Pigweed [3, 17]: 100
- Plant response rating, Velvetleaf [4, 14]: 100
- Plant response rating, Velvetleaf [4, 15]: 100
- Plant response rating, Velvetleaf [4, 16]: 80
- Plant response rating, Velvetleaf [4, 17]: 100
- Plant response rating, Wheat [5, 14]: 0
- Plant response rating, Wheat [5, 15]: 10
- Plant response rating, Wheat [5, 16]: 0
- Plant response rating, Wheat [5, 17]: 0
- Plant response rating, Foxtail, Giant [6, 14]: 80
- Plant response rating, Foxtail, Giant [6, 15]: 90
- Plant response rating, Foxtail, Giant [6, 16]: 80
- Plant response rating, Foxtail, Giant [6, 17]: 100
- Plant response rating, Corn [7, 14]: 0
- Plant response rating, Corn [7, 15]: 20
- Plant response rating, Corn [7, 16]: 0
- Plant response rating, Corn [7, 17]: 0
- Plant response rating, Morningglory [8, 14]: 100
- Plant response rating, Morningglory [8, 15]: 100
- Plant response rating, Morningglory [8, 16]: 80
- Plant response rating, Morningglory [8, 17]: 80
- Plant response rating, Barley ([9]; 31 g ai/ha, postemergence, scale 0 to 100, 0 is no effect, 100 is complete control): 0
- Barley plant response rating (0 to 100 scale) ([9]; 62 g ai/ha, postemergence, 0 is no effect, 100 is complete control, 13 to 15 days): 10
- Plant response rating, Barley ([9]; Postemergence, 125 g ai/ha, scale 0 to 100 (0 no effect, 100 complete control)): 30
- Plant response rating, Barley ([9]; Postemergence, 250 g ai/ha, scale 0 to 100 (0 no effect, 100 complete control)): 60
- Plant response rating, Flood, Barnyardgrass [10, 18]: 70
- Plant response rating, Barnyardgrass [10, 19]: 60
- Plant response rating, Barnyardgrass [10, 20]: 60
- Barnyardgrass plant response rating [10, 21]: 15
- Plant response rating, Flood, Ducksalad [11, 18]: 85
- Plant response rating, Ducksalad [11, 19]: 40
- Plant response rating, Ducksalad [11, 20]: 80
- Ducksalad plant response rating [11, 21]: 30
- Plant response rating, Flood, Sedge, Umbrella [12, 18]: 75
- Plant response rating, Sedge, Umbrella [12, 19]: 40
- Plant response rating, Sedge, Umbrella [12, 20]: 65
- Sedge, Umbrella plant response rating [12, 21]: 30
- Plant response rating, Flood, Rice [13, 18]: 35
- Plant response rating, Rice [13, 19]: 15
- Plant response rating, Rice [13, 20]: 20
- Rice plant response rating [13, 21]: 10
